Test results reported in patent US10093675B2, “6,8-disubstituted-9-(heterocyclyl)purines, compositions containing these derivatives and their use in cosmetic and medicinal applications” (USTAV EXPERIMENTALNI BOTANIKY AV CR, V.V.I., priority 2014, dated 2018).
Read-outs that look alike come from different tables or passages of the source.

Columns and labels:
[1] = test system: erytroid leukemia cell line K-562; test: In vitro cytotoxic activity (Calcein AM), K-562; assay type: cell-based, human; conditions: read-out: Cell line tested/IC50 (μmol/L) K-562
Excerpt: (§1) Because toxic compounds negatively influence metabolic processes of cells, many standard cytotoxicity assays are based on measurement of metabolisation rate of various artificial substrates. Resulting product is then quantified, for example, by means of spectrometry. The assays can be easily modified for use in 96-well plates. For evaluation of cytotoxicity of the […] of this invention, a microtiter assay based on quantification of metabolisation of Calcein AM was used. The assay is widely used in drug screening programs and in chemosensitivity testing. In live cells, Calcein AM is enzymatically hydrolysed and accumulation of resulting calcein is manifested by green fluorescence.
(§2) The following human cell lines were used for routine screening of the compounds: normal diploid fibroblasts BJ, T-lymphoblastic leukemia cell line CEM, promyelocytic leukemia cell line HL-60, erytroid leukemia cell line K-562, breast carcinoma cell line MCF-7, osteosarcoma cell line HOS and melanoma cell line G-361. The cells were maintained in Nunc/Corning 80 cm^2 plastic tissue culture flasks and cultured in cell culture medium (DMEM with 5 g/l glucose, 2 mM glutamine, 100 U/ml penicillin, 100 mmg/ml streptomycin, 10% fetal calf serum and sodium bicarbonate). The cell suspensions were prepared and diluted according to the particular cell type and the expected target cell density (2.500-30.000 cells per well based on cell growth characteristics) and pipetted (80 μl) into 96-well plates. Inoculates were allowed a pre-incubation period of 24 hours at 37° C. and 5% CO2 for stabilization. Tested compound was added in total volume of 20 μl of water at time zero. Usually, test compound was evaluated at six 3-fold dilutions. In routine testing, the highest concentration tested was 100 μM, but it could have been adjusted because of limited solubility of a compound. All drug concentrations were tested in triplicates.
(§3) Incubations of cells with the test compounds lasted for 72 hours at 37° C., in 5% CO2 atmosphere and 100% humidity. At the end of incubation period Calcein AM in PBS was added into final concentration of 1 μg/ml. After another 1 hour of incubation fluorescence (FD) was measured with the Labsystem FIA Reader Fluoroscan Ascent (UK). Growth inhibition (GI) was estimated using the following equitation: GI=(mean FDdrug exposed wells−mean FDblank)/(mean FDcontrol wells−mean FDblank)×100%. The GI50 value, the drug concentration causing 50% reduction of Calcein AM conversion, was calculated from the obtained dose response curves.

[2] = test system: Human diploid fibroblast BJ; test: In vitro cytotoxic activity (MTT); assay type: cell-based; conditions: 72 hours incubation; concentration causing 20% decrease in mitochondrial dehydrogenase activity
Protocol: MTT (metabolic tetrazolium toxicity) assay is a standard colorimetric assay for evaluation of cytotoxicity. Mitochondrial dehydrogenase activity converts yellow MTT into violet formazan which is measured by means of spectrometry.
Human diploid fibroblast BJ (passage 18-22) were seeded into 96-well plate (5.000 cells per well). After 6 hours cultivation medium (DMEM with 5 g/l glucose, 2 mM glutamine, 100 U/ml penicillin, 100 mmg/ml streptomycin, 10% fetal calf serum and sodium bicarbonate) was replaced with the cultivation medium containing test compounds in concentration range of 0-200 µM. Highest concentration was adjusted if the solubility of the compound was limiting. Every concentration was tested in pentaplicate. MTT was added to the cells after 72 hours incubation (final concentration 0.5 mg/ml) and incubation continued for another 3 hours. MTT was solubilised by DMSO and absorbance at 570 nm was measured. Growth inhibition (GI) was estimated using the following equitation: GI=(mean A drug exposed wells−mean Ablank/mean Acontrol wells−mean Ablank)×100%. The GI20 value, the drug concentration causing 20% decrease in mitochondrial dehydrogenase activity, was calculated from the obtained dose response curves.

[3] = test system: osteosarcoma cell line HOS; test: In vitro cytotoxic activity (Calcein AM), HOS; assay type: cell-based, human; conditions: 72 hours, read-out: Cell line tested/IC50 (μmol/L) HOS
Excerpt: as §1, §2, §3

melanoma cell line G-361 = test: In vitro cytotoxic activity (Calcein AM), G-361; assay type: cell-based, human; conditions: read-out: Cell line tested/IC50 (μmol/L) G-361
Excerpt: as §1, §2, §3

[4] = test system: normal diploid fibroblasts BJ; test: In vitro cytotoxic activity (Calcein AM), BJ; assay type: cell-based, human; conditions: 72 hours, read-out: Cell line tested/IC50 (μmol/L) BJ
Excerpt: as §1, §2, §3

[5] = test system: cytokinin-dependent tobacco callus Nicotiana tabacum L. cv. Wisconsin 38; test: Plant cell division: growth of cytokinin-dependent tobacco callus; assay type: cell-based; conditions: for Activity (%); (s.d.): relative activity at concentration with highest activity, 10^−6 M kinetin set at 100%; for Concentration with highest activity (mol/l): tobacco callus fresh weight increase after four weeks, tested 10^−8 M to 10^−4 M
Protocol: Cytokinin-dependent tobacco callus Nicotiana tabacum L. cv. Wisconsin 38 was maintained at 25° C. in darkness on modified MS medium, containing 4 μmol/l nicotinic acid, 2.4 μmol/l pyridoxine hydrochloride, 1.2 μmol/l thiamine, 26.6 μmol/l glycine, 1.37 μmol/l glutamine, 1.8 μmol/l myo-inositol, 30 g/l of sucrose, 8 g/l of agar, 5.37 μmol/l NAA and 0.5 μmol/l BAP. Subcultivation was carried out every three weeks. Fourteen days before the bioassay, the callus tissue was transferred to the media without BAP. Biological activity was determined from the increase in fresh callus weight after four weeks of cultivation. Five replicates were prepared for each cytokinin concentration and the entire test was repeated twice. From the obtained data, the concentration with highest activity was selected for each compound tested. Relative activity at this concentration was calculated (see Table 17 below). The activity obtained for 10^−6 M kinetin (Kin) was set as 100%.
The cytokinins to be tested were dissolved in dimethylsulfoxide (DMSO) and the solution brought up to 10^−3M with distilled water.

[6] = test system: breast carcinoma cell line MCF-7; test: In vitro cytotoxic activity (Calcein AM), MCF-7; assay type: cell-based, human; conditions: read-out: Cell line tested/IC50 (μmol/L) MCF7
Excerpt: as §1, §2, §3

[7] = test system: T-lymphoblastic leukemia cell line CEM; test: In vitro cytotoxic activity (Calcein AM), CEM; assay type: cell-based, human; conditions: 72 hours, read-out: Cell line tested/IC50 (μmol/L) CEM
Excerpt: as §1, §2, §3

[8] = test system: Salmonella typhimurium histidien auxotrophs TA98 and TA100; test: Ames test; assay type: cell-based; conditions: 2.5 to 5000 μg/plate; presence and absence of Aroclor-induced rat liver S9
Protocol: A number of tests related to the safety of have been carried out using conventionally accepted protocols and procedures. The results of these studies are summarized herein. Tests were carried out using DMSO as solvent and dose levels of compound 21, 24, 26, 27, 39, 41, 45, 48, 50, 52, 53, 54, 55, 56, 63, 64, 66, 67, 68, 69, 70, 71, 72, 74, 76, 124, 125, 126, 127, 128, 129, 130, 145, 146, 147, 149, 150, 151, 208, 216, 218 a 243 at 2.5, 5.0, 15, 50, 500, 1500, and 5000 μg/plate based upon standard protocol and procedures (Ames et al., Mutation Research, 31, 347-364 (1975); Maron et al., Mutation Research, 113, 173-215 (1983)).

SMILES | IC50 ([1]; Homo sapiens, K562, 72 hours) | GI20 [2] | IC50 ([3]; Homo sapiens) | IC50 (melanoma cell line G-361; Homo sapiens, G-361, 72 hours) | IC50 ([4]; Homo sapiens, Fibroblast) | Activity (%); (s.d.) [5] | IC50 ([6]; Homo sapiens, MCF7, 72 hours) | IC50 ([7]; Homo sapiens) | IC50 ([1]; 72 hours) | IC50 [3] | IC50 (melanoma cell line G-361; 72 hours) | IC50 [4] | Concentration with highest activity (mol/l) [5] | IC50 ([6]; 72 hours) | IC50 [7] | mutagenic response [8]
CC(C)=CCNc1ncnc2c1nc(Cl)n2C1CCCCO1 (stereo not shown) [Compound 3, 8-Chloro-6-(3-methylbut-2-en-1-ylamino)-9-(tetrahydropyran-2-yl)-9H-purine] | > 50 µmol/L | >50 µM | > 50 µmol/L | > 50 µmol/L | > 50 µmol/L | 118 (±6) % | > 50 µmol/L | > 50 µmol/L | – | – | – | – | – | – | – | –
CC(C)=CCNc1ncnc2c1nc(Br)n2C1CCCCO1 (stereo not shown) [Compound 23, 8-Bromo-6-(3-methylbut-2-en-1-ylamino)-9-(tetrahydropyran-2-yl)-9H-purine] | > 50 µmol/L | >100 µM | > 50 µmol/L | > 50 µmol/L | > 50 µmol/L | 125 (±7) % | > 50 µmol/L | > 50 µmol/L | – | – | – | – | – | – | – | –
CC(C)=CCNc1ncnc2c1nc(Cl)n2C1CCCO1 (stereo not shown) [Compound 65] | – | >100 µM | – | – | – | 127 (±9) % | – | – | > 50 µmol/L | > 50 µmol/L | > 50 µmol/L | > 50 µmol/L | 10^−6-10^−4 mol/l | > 50 µmol/L | > 50 µmol/L | –
COc1nc2c(NCc3ccccc3)ncnc2n1C1CCCCO1 (stereo not shown) [Compound 125] | – | >100 µM | – | – | – | 104 (±2) % | – | – | > 50 µmol/L | > 50 µmol/L | > 50 µmol/L | > 50 µmol/L | 10^−6-10^−4 mol/l | > 50 µmol/L | > 50 µmol/L | no positive mutagenic responses
COc1nc2c(NC/C=C(\C)CO)ncnc2n1C1CCCCO1 (stereo not shown) [Compound 126, (E)-6-(4-Hydroxy-3-methylbut-2-en-1-ylamino)-8-methoxy-9-(tetrahydropyran-2-yl)-9H-purine] | > 50 µmol/L | >100 µM | > 50 µmol/L | > 50 µmol/L | > 50 µmol/L | 116 (±6) % | > 50 µmol/L | > 50 µmol/L | – | – | – | – | – | – | – | no positive mutagenic responses
COc1nc2c(NCC=C(C)C)ncnc2n1C1CCCCO1 (stereo not shown) [Compound 127, 8-Methoxy-6-(3-methylbut-2-en-1-ylamino)-9-(tetrahydropyran-2-yl)-9H-purine] | > 50 µmol/L | >100 µM | > 50 µmol/L | > 50 µmol/L | > 50 µmol/L | 114 (±6) % | > 50 µmol/L | > 50 µmol/L | – | – | – | – | – | – | – | no positive mutagenic responses
COc1cccc(CNc2ncnc3c2nc(OC)n3C2CCCCO2)c1 (stereo not shown) [Compound 128] | – | >100 µM | – | – | – | 121 (±5) % | – | – | > 50 µmol/L | > 50 µmol/L | > 50 µmol/L | > 50 µmol/L | 10^−6-10^−5 mol/l | > 50 µmol/L | > 50 µmol/L | no positive mutagenic responses
COc1nc2c(NCc3cccc(O)c3)ncnc2n1C1CCCCO1 (stereo not shown) [Compound 129] | – | >100 µM | – | – | – | 111 (±4) % | – | – | > 50 µmol/L | > 50 µmol/L | > 50 µmol/L | > 50 µmol/L | 10^−6-10^−5 mol/l | > 50 µmol/L | > 50 µmol/L | no positive mutagenic responses
COc1nc2c(NCc3cccc(F)c3)ncnc2n1C1CCCCO1 (stereo not shown) [Compound 130] | – | >100 µM | – | – | – | 108 (±3) % | – | – | > 50 µmol/L | > 50 µmol/L | > 50 µmol/L | > 50 µmol/L | 10^−6-10^−4 mol/l | > 50 µmol/L | > 50 µmol/L | no positive mutagenic responses
CSc1nc2c(NC/C=C(\C)CO)ncnc2n1C1CCCCO1 (stereo not shown) [Compound 146] | – | >100 µM | – | – | – | 108 (±5) % | – | – | > 50 µmol/L | > 50 µmol/L | > 50 µmol/L | > 50 µmol/L | 10^−6-10^−5 mol/l | > 50 µmol/L | > 50 µmol/L | no positive mutagenic responses
CSc1nc2c(NCC=C(C)C)ncnc2n1C1CCCCO1 (stereo not shown) [Compound 147] | – | >100 µM | – | – | – | 112 (±2) % | – | – | > 50 µmol/L | > 50 µmol/L | > 50 µmol/L | > 50 µmol/L | 10^−6-10^−4 mol/l | > 50 µmol/L | > 50 µmol/L | no positive mutagenic responses
COc1nc2c(NCC=C(C)C)ncnc2n1C1CCCO1 (stereo not shown) [Compound 207] | – | >100 µM | – | – | – | 114 (±3) % | – | – | > 50 µmol/L | > 50 µmol/L | > 50 µmol/L | > 50 µmol/L | 10^−6-10^−4 mol/l | > 50 µmol/L | > 50 µmol/L | –
COc1cccc(CNc2ncnc3c2nc(OC)n3C2CCCO2)c1 (stereo not shown) [Compound 209] | – | >100 µM | – | – | – | 112 (±4) % | – | – | > 50 µmol/L | > 50 µmol/L | > 50 µmol/L | > 50 µmol/L | 10^−6-10^−4 mol/l | > 50 µmol/L | > 50 µmol/L | –
